Literature values, collected in patent US6726673B1, “Methods and apparatus for improved administration of testosterone pharmaceuticals” (Zars, Inc., priority 1999, dated 2004).

Conditions: following intramuscular injection, absorbed gradually from the lipid tissue phase at the injection site

Compound: CCCCCCC(=O)O[C@H]1CC[C@H]2[C@@H]3CCC4=CC(=O)CC[C@]4(C)[C@H]3CC[C@]12C [testosterone enanthate]
- duration of action: 2-4 weeks
